Article PMC8222254, “Self-assembly of an anion receptor with metal-dependent kinase inhibition and potent in vitro anti-cancer properties” (Nature Communications, 2021)
Where “and” joins values, the source holds several entries; their conditions need not be identical. Equal values may be shown once. Read-outs that look alike come from different tables or passages of the source.

How the values were obtained:
Test in all cases: Chemosensitivity, 96 h continuous exposure, MTT assay
Format in all cases: cell-based, human
MCF10A non-cancer cells = test system: MCF10A non-cancer cells
From the text: (§1) All cell lines were purchased from and maintained as monolayers as described by the American Type Culture Collection with the exception of the p53^+/+ and p53^−/− isogenic clones of HCT116 human colorectal adenocarcinoma cells which were a kind gift from Professor Bert Vogelstein[54]. GBM1 cells were established from a primary GBM tumour by Heiko Wurdak and colleagues[32],[33]. Non-cancerous adult brain neural progenitor (NP1) cells were derived from a patient undergoing surgery to treat epilepsy[32],[33]. Cell culture and growth media for NP1 and GBM1 cells were as described[32],[33]. The response of cells following a continuous 96-h exposure to test compounds and platinates was determined using the MTT assay. Potency was recorded as the IC50 and the selectivity index (SI) was defined as the ratio of IC50 values for non-cancer to cancer cell lines with values >1 representing selectivity for cancer cells as opposed to non-cancer cells.
(§2) All cell lines used were maintained at low passage in antibiotic-free media. HT29, DLD-1, HCT116 p53^+/+ and HCT116 p53^−/− are all colorectal adenocarcinoma cell lines derived from different individuals and harbour different combinations of oncogenic lesions (except for the HCT116 isogenic cancer cell clones that are genetically identical except for p53 status). PSN-1, BxPC-3 and MiaPaCa2 are pancreatic carcinoma cell lines and A549 and H460 are lung carcinoma cell lines. HT29, DLD-1, PSN-1, BxPC-3, A549 and H460 cell lines were cultured in RPMI-1640 growth media (Sigma) containing 2 mM L-glutamine, 1 mM sodium pyruvate and 10% foetal bovine serum (FBS). HCT116 (p53^+/+ and p53^−/−) and MiaPaCa2 cell lines were cultured in Dulbecco’s Modified Eagle’s Medium (Sigma), 2 mM L-glutamine and 10% FBS. The ARPE-19 retinal epithelial non-cancer cell line was cultured in DMEM/F12 media (Gibco), 2 mM L-glutamine, 1 mM sodium pyruvate and 10% FBS. The MCF10A non-cancerous human breast epithelial cell line was cultured in Minimal Essential Media Eagle (Sigma), 2 mM L-glutamine, 1 mM sodium pyruvate, 10% FBS and 1x non-essential amino acids (NEAA). NP1 and GBM1 cells were cultured on plasticware coated with poly-L-ornithine (5 µg/ml) and laminin (2.4 µg/ml)[32],[33]. NP1 cells were grown in DMEM/F12 media (Gibco) supplemented with 5% FBS, 20 ng/ml hFGF, 20 ng/ml rhEGF, 0.5x B-27 supplement (Gibco), 0.5x N-2 supplement (Gibco) and 1x GLUTAMAX (Gibco). GBM1 cells were cultured in Neurobasal media (Gibco) supplemented with 40 ng/ml hFGF, 40 ng/ml rhEGF, 0.5x B-27 supplement (Gibco) and 0.5x N-2 supplement (Gibco).
(§3) [L2(Metal)3]^6+ and all the other self-assembling complexes were freshly formed by adding DMSO to individual components and mixing together by pipetting. These were then further diluted in cell culture media such that the final DMSO concentration that cells were exposed to was 0.2% (vehicle control). Cisplatin, oxaliplatin and carboplatin were dissolved in phosphate buffered saline. Cell lines were seeded into 96 well plates at 2 × 10^3 cells per well and incubated overnight at 37 °C. GBM1 cancer stem-like cells were seeded at 3 × 10^3 cells per well and NP1 neural progenitors were seeded at 1.5 × 10^3 cells per well. The following day, media was removed and replaced with fresh media containing test compounds at a range of concentrations. Cells were incubated with test compounds for a further 96 h after which the media was removed and replaced with fresh media (200 μl/well). MTT was added (20 μl at 5 mg/ml) and cells were incubated for a further 4 h. Media and MTT were removed and formazan crystals were dissolved in 150 μl of DMSO and the absorbance of the resulting solution determined at 540 nm. Dose response curves were constructed, and the concentration required to reduce cell growth by 50% (IC50) determined.

HCT116 p53+/+ = test system: HCT116 p53+/+
From the text: as §1, §2, §3

DLD-1 = test system: DLD-1
From the text: as §1, §2, §3

BxPC3 = test system: BxPC3
From the text: as §1, §2, §3

A549 = test system: A549
From the text: as §1, §2, §3

ARPE-19 non-cancer cells = test system: ARPE-19 non-cancer cells
From the text: as §1, §2, §3

H460 = test system: H460
From the text: as §1, §2, §3

For `O=P([O-])([O-])Oc1ccccc1.[Cu+2].[Cu+2].[Cu+2].c1ccc(-c2csc(NCCN(CCNc3nc(-c4ccccn4)cs3)CCNc3nc(-c4ccccn4)cs3)n2)nc1.c1ccc(-c2csc(NCCN(CCNc3nc(-c4ccccn4)cs3)CCNc3nc(-c4ccccn4)cs3)n2)nc1` [[L2Cu3(O3POPh)]4+], the IC50 (MCF10A non-cancer cells; MCF10A non-cancer, read-out: Mean IC50 values) was 51.5 µM, the IC50 (MCF10A non-cancer cells; MCF10A, mean of replicates, read-out: Mean IC50) was 51.5 µM and the IC50 (MCF10A non-cancer cells; MCF10A, single replicate, read-out: IC50 values for each replicate) was 60.2 µM and 49 µM and 54.9 µM and 41.9 µM. For the same molecule, the “Relative potency (+ anion to no anion), Ratio + anion:no anion” value (from here on “Relative potency … Ratio + anion:no anion”) (MCF10A non-cancer cells; ratio of IC50, MCF10A) was 1.07, the IC50 (HCT116 p53+/+; HCT116 p53+/+, mean of replicates, read-out: Mean IC50) was 0.167 µM and the IC50 (HCT116 p53+/+; HCT116 p53+/+, read-out: Mean IC50 values) was 0.167 µM. The IC50 (HCT116 p53+/+; HCT116 p53+/+, single replicate, read-out: IC50 values for each replicate) was 0.17 µM and 0.167 µM and 0.189 µM and 0.142 µM, the “Selectivity index (ARPE19)” value (HCT116 p53+/+; IC50 ARPE-19 / IC50 HCT116 p53+/+) was 690.06 and the “Selectivity index (MCF10A)” value (HCT116 p53+/+; IC50 MCF10A / IC50 HCT116 p53+/+) was 308.25. The “Relative potency … Ratio + anion:no anion” value (HCT116 p53+/+; ratio of IC50, HCT116 p53+/+) was 0.34, the “Selectivity indices relative to ARPE-19, Ratio + anion:no anion” value (HCT116 p53+/+; ratio of SI (ARPE-19), HCT116 p53+/+) was 6.503 and the “Selectivity indices relative to MCF10A, Ratio + anion:no anion” value (HCT116 p53+/+; ratio of SI (MCF 10A), HCT116 p53+/+) was 3.168. The IC50 (DLD-1; DLD-1, mean of replicates, read-out: Mean IC50) was 0.392 µM, the IC50 (DLD-1; DLD-1, read-out: Mean IC50 values) was 0.392 µM and the “Selectivity index (ARPE19)” value (DLD-1; IC50 ARPE-19 / IC50 DLD-1) was 293.98. The “Selectivity index (MCF10A)” value (DLD-1; IC50 MCF10A / IC50 DLD-1) was 131.32, the “Relative potency … Ratio + anion:no anion” value (DLD-1; ratio of IC50, DLD-1) was 2.97 and the “Selectivity indices relative to ARPE-19, Ratio + anion:no anion” value (DLD-1; ratio of SI (ARPE-19), DLD-1) was 0.737. For the same molecule, the “Selectivity indices relative to MCF10A, Ratio + anion:no anion” value (DLD-1; ratio of SI (MCF 10A), DLD-1) was 0.359, the IC50 (BxPC3; BXPC3, mean of replicates, read-out: Mean IC50) was 51.9 µM and the IC50 (BxPC3; BXPC3, read-out: Mean IC50 values) was 39.5 µM. The IC50 (BxPC3; BXPC3, single replicate, read-out: IC50 values for each replicate) was 59.3 µM and 58.6 µM and 40.8 µM and 47.6 µM and 53 µM, the “Selectivity index (ARPE19)” value (BxPC3; IC50 ARPE-19 / IC50 BXPC3) was 2.92 and the “Selectivity index (MCF10A)” value (BxPC3; IC50 MCF10A / IC50 BXPC3) was 1.30. For the same molecule, the “Relative potency … Ratio + anion:no anion” value (BxPC3; ratio of IC50, BXPC3) was 134.82, the “Selectivity indices relative to ARPE-19, Ratio + anion:no anion” value (BxPC3; ratio of SI (ARPE-19), BXPC3) was 0.016 and the “Selectivity indices relative to MCF10A, Ratio + anion:no anion” value (BxPC3; ratio of SI (MCF 10A), BXPC3) was 0.008. The IC50 (A549; A549, mean of replicates, read-out: Mean IC50) was 1.71 µM, the IC50 (A549; A549, read-out: Mean IC50 values) was 1.71 µM and the IC50 (A549; A549, single replicate, read-out: IC50 values for each replicate) was 1.8 µM and 1.6 µM and 1.72 µM. The “Selectivity index (ARPE19)” value (A549; IC50 ARPE-19 / IC50 A549) was 67.55, the “Selectivity index (MCF10A)” value (A549; IC50 MCF10A / IC50 A549) was 30.17 and the “Relative potency … Ratio + anion:no anion” value (A549; ratio of IC50, A549) was 7.32. For the same molecule, the “Selectivity indices relative to ARPE-19, Ratio + anion:no anion” value (A549; ratio of SI (ARPE-19), A549) was 0.299, the “Selectivity indices relative to MCF10A, Ratio + anion:no anion” value (A549; ratio of SI (MCF 10A), A549) was 0.146 and the IC50 (ARPE-19 non-cancer cells; ARPE-19, mean of replicates, read-out: Mean IC50) was 115 µM. For the same molecule, the IC50 (ARPE-19 non-cancer cells; ARPE-19, single replicate, read-out: IC50 values for each replicate) was 179 µM and 157 µM and 60.7 µM and 64.1 µM, the IC50 (ARPE-19 non-cancer cells; ARPE-19 non-cancer, read-out: Mean IC50 values) was 115 µM and the “Relative potency … Ratio + anion:no anion” value (ARPE-19 non-cancer cells; ratio of IC50, ARPE-19) was 2.19. The IC50 (H460; H460, mean of replicates, read-out: Mean IC50) was 0.198 µM, the IC50 (H460; H460, read-out: Mean IC50 values) was 0.198 µM and the IC50 (H460; H460, single replicate, read-out: IC50 values for each replicate) was 0.122 µM and 0.234 µM and 0.163 µM and 0.228 µM and 0.245 µM. For the same molecule, the “Selectivity index (ARPE19)” value (H460; IC50 ARPE-19 / IC50 H460) was 582.02, the “Selectivity index (MCF10A)” value (H460; IC50 MCF10A / IC50 H460) was 259.98 and the “Relative potency … Ratio + anion:no anion” value (H460; ratio of IC50, H460) was 0.72. For the same molecule, the “Selectivity indices relative to ARPE-19, Ratio + anion:no anion” value (H460; ratio of SI (ARPE-19), H460) was 3.052 and the “Selectivity indices relative to MCF10A, Ratio + anion:no anion” value (H460; ratio of SI (MCF 10A), H460) was 1.487.
